Here are results for twelve molecules from ChEMBL document CHEMBL1157705, “Carbonic anhydrase inhibitors. Identification of selective inhibitors of the human mitochondrial isozymes VA and VB over the cytosolic isozymes I and II from a natural product-based phenolic library” (Bioorg Med Chem, 2010).

Assay [1] has as its target Carbonic anhydrase 2 (Homo sapiens) (UniProt P00918).
Assay [2] concerns the target Carbonic anhydrase 1 (Homo sapiens) (UniProt P00915).
In assay [3] the target is Carbonic anhydrase 5B, mitochondrial (Homo sapiens) (UniProt Q9Y2D0).
Carbonic anhydrase 5B, mitochondrial (Homo sapiens), sequence (Q9Y2D0 whole entry): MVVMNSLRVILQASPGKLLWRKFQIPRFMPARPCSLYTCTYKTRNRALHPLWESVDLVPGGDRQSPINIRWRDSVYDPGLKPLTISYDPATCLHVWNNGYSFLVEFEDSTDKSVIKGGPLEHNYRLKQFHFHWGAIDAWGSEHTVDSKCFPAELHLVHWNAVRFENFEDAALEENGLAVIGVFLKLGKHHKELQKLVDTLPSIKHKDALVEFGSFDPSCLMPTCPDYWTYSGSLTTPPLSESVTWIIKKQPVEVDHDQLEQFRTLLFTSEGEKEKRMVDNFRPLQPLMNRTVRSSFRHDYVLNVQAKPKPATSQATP
Description: Inhibition of human recombinant carbonic anhydrase 5B by stopped flow CO2 hydration method

Carbonic anhydrase 1 (Homo sapiens), sequence (P00915 2-261 limits assumed): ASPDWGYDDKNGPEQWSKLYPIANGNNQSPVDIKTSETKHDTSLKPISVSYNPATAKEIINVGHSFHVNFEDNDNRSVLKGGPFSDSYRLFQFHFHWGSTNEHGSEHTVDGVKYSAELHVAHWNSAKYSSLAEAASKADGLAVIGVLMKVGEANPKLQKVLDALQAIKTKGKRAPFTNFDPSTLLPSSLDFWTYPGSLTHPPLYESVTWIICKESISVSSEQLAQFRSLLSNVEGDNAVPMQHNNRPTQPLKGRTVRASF

The term Ki denotes the dissociation constant of the complex between target and ligand, obtained from inhibition or displacement. Regarding `OCCc1ccc(O)cc1`, the Ki in assay [1] worked out at 8.7 µM; in assay [2], 430 µM; in assay [3], 0.105 µM.

Take `O=C(O)/C=C/C(=O)O`: the Ki in assay [1] was 10.5 µM; in assay [2], 395 µM; in assay [3], 0.09 µM.

For `COCCNC(=O)Cc1ccc(O)c(Cl)c1`, the results for the inhibitory constant (Ki) in assay [1], in assay [2] and in assay [3] were 10.4 µM, 158 µM and 0.084 µM, respectively.

Consider `O=C(Cc1ccc(O)c(Cl)c1)NCCc1ccccc1`, for which the results for the Ki in assay [1], in assay [2] and in assay [3] were 9.8 µM, 9.6 µM and 0.091 µM, respectively.

For the molecule `O=C(Cc1ccc(O)c(Cl)c1)NCc1ccccc1`, the Ki is 11.4 µM in assay [1], 10.5 µM in assay [2] and 0.085 µM in assay [3].

As for `COc1cc(C[C@@H](C)[C@H](C)Cc2ccc(O)c(OC)c2)ccc1O`, the Ki was 230 µM in assay [1], 307 µM in assay [2] and 0.071 µM in assay [3].

For `COc1cc([C@@H]2[C@@H](C)[C@H](C)[C@H]2c2ccc(O)c(OC)c2)ccc1O`, the inhibitory constant (Ki) in assay [1] came to 11.7 µM; in assay [2] it was 368 µM; in assay [3] it was 0.069 µM.

Take `COc1cc(/C=C2\N=C(N)NC2=O)ccc1O`: the inhibition constant Ki in assay [1] was 9.6 µM; in assay [2], 10.5 µM; in assay [3], 0.07 µM.

For the molecule `COC(=O)/C=C/C(=O)O`, the Ki in assay [1] was found to be 7.5 µM; in assay [2], 284 µM; in assay [3], 0.098 µM.

As to `COc1cc([C@@H]2[C@@H](C)[C@@H](C)[C@@H]2c2ccc(O)c(OC)c2)ccc1O`, the inhibitory constant (Ki) in assay [1] amounted to 12.1 µM; in assay [2], 354 µM; in assay [3], 0.079 µM.

For the molecule `O=C(O)Cc1ccc(O)cc1`, the inhibitory constant (Ki) in assay [1] came out at 10.3 µM; in assay [2] it was 309 µM; in assay [3], 0.107 µM.

As for `CCCCNC(=O)Cc1ccc(O)c(Cl)c1`, the Ki in assay [1] amounted to 9.4 µM; in assay [2] it was 10.7 µM; in assay [3], 0.081 µM.
